Assay results taken from patent publication US20150150842A1, “DESETHYLAMIODARONE COMPOSITIONS” (priority 2012, published 2015).
Where “and” joins values, the source holds several entries; their conditions need not be identical. Equal values may be shown once.

Columns and labels:
[1] = tested on: conscious dogs with structural atrial remodelling; test: Chronic rapid atrial pacing induced atrial remodelling and burst-induced atrial fibrillation in conscious dogs
Procedure: The experiments were performed on chronically instrumented Beagle dogs of both sexes, weighing 12-13 kg. The animals were subjected to the following surgery under general anaesthesia: pacemakers were implanted into bilateral subcutaneous pockets in the neck area (Logos, Karios; Biotronik Hungaria Ltd.) and were attached to pacemaker electrodes implanted into the right ventricle and right atrium. Radiofrequency catheter ablation was performed in each animal to achieve third degree atrioventricular (AV) block so that during subsequent rapid atrial pacing (400/min) the ventricles are protected from high heart rates. […] On the seventh day after surgery, following the measurement of right atrial effective refractory period the atrial pacemaker was set to a frequency of 400/min to achieve atrial electrical and structural remodelling. Right atrial rapid pacing is necessary to maintain for 3 months in this model to obtain complete remodeling of the atria signalled by the reduction of right atrial effective refractory period below 80 ms.
(§1) The body weight of animals was monitored for strict adherence to the desired dose.
(§2) The right atrial effective refractory period (ERP) was measured using the S1 -S2 protocol at cycle lengths of 150 and 300 ms. In addition ERP monitoring, 10-second long burst stimuli were applied at 800/min frequency to induce atrial fibrillation and the incidence of AF, the duration of AF episodes were measured before commencement of oral drug therapy and then after the initiation of therapy every 4 days.

[2] = Cardiac, liver and lung tissue DEA and AMIO levels in dogs with atrial fibrillation and structural atrial remodelling; settings: for concentration at 4 weeks: both, Beagle, dog, oral, 50 mg/kg/day
Procedure: as §1, §2
Cardiac tissue drug levels were measured in right atrial, left atrial, right ventricular and left ventricular tissue samples. Following the sacrifice of the animals (the subsequent day after the 4-week treatment), tissue samples were taken before tissue preparations were isolated for in vitro studies.

conscious rats = tested on: conscious rats
Procedure: The present experiments were performed on male, Sprague-Dawley CFY rats weighing 260-300 g. During a preliminary open-chest surgery we applied a loose silk loop around the left main coronary artery, and then the chest was closed (Leprán et al., 1983). Seven-eight days after the preliminary surgery—after complete recovery and healing—the loose silk loop was tightened to occlude the coronary artery in conscious, freely moving animals. During the first 15 min of myocardial infarction a bipolar ECG was recorded continuously (PowerLab 8SP, ADInstruments, Great Britain).
We followed the survival rate during the acute phase (first 15 min) and during the subsequent 16 hours after coronary artery occlusion. The incidence and duration of arrhythmias in the acute phase were evaluated according to the Lambeth Conventions (Walker et al., 1988), i.e. ventricular fibrillation, ventricular tachycardia, and other types of arrhythmias, including ventricular extrasystoles, bigeminy, and salvos. The size of myocardial infarction was measured in the animals surviving for 16 hours after coronary artery occlusion using nitrotetrazolium-blue dye staining.
Long-term oral pretreatment was applied for 1 month before the coronary artery occlusion. […] Control animals were given the vehicle in a volume of 5 ml/kg.

rats = test: Chronic 28-day non-GLP toxicology in rats
[3] = tested on: dog atrial and ventricular tissue; test: Atrial and ventricular action potential parameters after chronic oral treatment of non-instrumented dogs; format: in vivo, Beagle dogs; settings: 500 ms cycle length, 4-week oral DEA 30 or AMIO 45 mg/kg/day
[4] = Plasma and tissue DEA and AMIO levels in non-instrumented dogs; settings: 4-week oral AMIO 45 mg/kg/day, individual dogs 1 and 2
[5] = dogs with AF, 4-week oral AMIO 50 mg/kg/day
[6] = dogs with structural atrial remodelling, 4-week oral AMIO 50 mg/kg/day

CCCCc1oc2ccccc2c1C(=O)c1cc(I)c(OCCN(CC)CC)c(I)c1 [AMIO, amiodarone]
Mood, behaviour, appetite and body weight ([1]; dogs, 4-week oral, DEA 25, AMIO 50 mg/kg/day): loss of appetite followed by a reduction in body weight
Lg AF duration, Following 4-week treatment, individual animals ([1]; oral AMIO 50 mg/kg/day, Control (before) 2.59, 3.12, 4.35): 1.35 and 0.88 and 0.12
AF duration (s), Following 4-week treatment, individual animals ([1]; oral AMIO 50 mg/kg/day, Control (before) 386.5, 1 302.9, 2 2663.7): 22.5 s and 7.5 s and 1.31 s
ERP, Following 4-week treatment, individual animals ([1]; oral AMIO 50 mg/kg/day, animals 2011/01, 2011/08, 2011/9, Control (before) 90, <80, 80): 100 ms (2×) and 130 ms
Incidence of AF, Following 4-week treatment, individual animals ([1]; oral AMIO 50 mg/kg/day, burst-induced AF, Control (before) 100%, 90%, 67%): 40% and 10% (2×)
Lg AF duration, Following 4-week treatment, Mean ± SE ([1]; oral AMIO 50 mg/kg/day, n=3, Control (before) 3.35 ± 0.52): 0.78 ± 0.36
Incidence of AF, Following 4-week treatment, Mean ± SE ([1]; oral AMIO 50 mg/kg/day, n=3, Control (before) 88.0 ± 10.54): 20.0 ± 10.0 %
AF duration (s), Following 4-week treatment, Mean ± SE ([1]; oral AMIO 50 mg/kg/day, n=3, Control (before) 8117.7 ± 7277.8): 10.4 ± 6.29 s
Incidence and duration of atrial fibrillation ([1]; three animals, 4-week oral treatment, DEA 25, AMIO 50 mg/kg/day, accompanied by prolongation of the ERP): showed a decreasing tendency
Liver and lung tissue concentrations of DEA in chronic AMIO treated dogs compared to chronic DEA treated dogs ([2]; AF model dogs, oral AMIO 50 mg/kg/day vs DEA 25 mg/kg/day): more than three times higher
concentration at 4 weeks ([2]; left atrium, Left atrium AMIO level, Mean, dogs with AF, 4-week oral AMIO 50 mg/kg/day, n=3): 35200 ng/g
concentration at 4 weeks ([2]; left atrium, Left atrium AMIO level, individual animals, dogs with AF, 4-week oral AMIO 50 mg/kg/day): 32600 ng/g
concentration at 4 weeks ([2]; left ventricle, Left ventricle AMIO level, Mean, dogs with AF, 4-week oral AMIO 50 mg/kg/day, n=3): 34400 ng/g
concentration at 4 weeks ([2]; left ventricle, Left ventricle AMIO level, individual animals, dogs with AF, 4-week oral AMIO 50 mg/kg/day): 36600 ng/g
concentration at 4 weeks ([2]; right atrium, Right atrium AMIO level, Mean, dogs with AF, 4-week oral AMIO 50 mg/kg/day, n=3): 24600 ng/g
concentration at 4 weeks ([2]; right ventricle, Right ventricle AMIO level, Mean, dogs with AF, 4-week oral AMIO 50 mg/kg/day, n=3): 34700 ng/g
concentration at 4 weeks ([2]; right ventricle, Right ventricle AMIO level, individual animals, dogs with AF, 4-week oral AMIO 50 mg/kg/day): 40800 ng/g
Left atrium AMIO level, individual animals [2, 5]: 39.045 μg/tissue g and 33.89 μg/tissue g
Left ventricle AMIO level, individual animals [2, 5]: 42.573 μg/tissue g and 24.061 μg/tissue g
Right atrium AMIO level, individual animals [2, 5]: 47.005 μg/tissue g and 19.936 μg/tissue g and 6.933 μg/tissue g
Right ventricle AMIO level, individual animals [2, 5]: 37.033 μg/tissue g and 26.349 μg/tissue g
Liver AMIO level, Mean ± SE [2, 6]: 126.8 ± 41.58 μg/tissue g
Liver AMIO level, individual animals [2, 6]: 123.961 μg/tissue g and 200.27 μg/tissue g and 56.314 μg/tissue g
Lung AMIO level, Mean ± SE [2, 6]: 215.1 ± 60.12 μg/tissue g
Lung AMIO level, individual animals [2, 6]: 312.24 μg/tissue g and 227.793 μg/tissue g and 105.152 μg/tissue g
Death due to the 1 month treatment (conscious rats; 1 month oral pretreatment): No death occurred
Survival rate during the acute phase of experimental myocardial infarction (conscious rats; 1 month oral pretreatment): significantly improved
Behavioral changes, body weight increments (conscious rats; 1 month oral pretreatment, AMIO 30 or 100, DEA 15 or 50 mg/kg/day): Neither AMIO nor DEA produced any behavioral changes of the animals, or in body weight increments
Arrhythmia score (conscious rats; first 15 min after coronary artery occlusion, 1 month oral AMIO 100 or DEA 50 mg/kg/day, control 4.77±0.33): 2.05±0.52
Incidence of ventricular fibrillation (conscious rats; larger doses (AMIO 100, DEA 50 mg/kg/day), after coronary artery occlusion): significantly decreased
Hepatic function alterations (total cholesterol, alkaline phosphatase [ALP]) (rats; 28-day oral AMIO 200 mg/kg/day compared to DEA 100 mg/kg/day): more robust
Alveolar histiocytosis in the lungs (rats; 28-day oral AMIO 200 mg/kg/day or DEA 100 mg/kg/day): alveolar histiocytosis was detected
Detection of the administered drug 14 days after the completion of administration (rats; 28-day oral AMIO 200 mg/kg/day or DEA 100 mg/kg/day, plasma (DEA: plasma or cardiac tissue)): could be detected in plasma samples
Increase in body weight following 28-day treatment (rats; AMIO 200 mg/kg/day or DEA 100 mg/kg/day, normal increase 44 g): 13 g
Food consumption and appetite (rats; first 3 weeks of 200 mg/kg/day AMIO, compared to control and 100 mg/kg/day DEA treated animals): reduced
Vmax (V/s), Dog atrium ([3]; n = 3, CONTROL 249.7 ± 52.7): 252.9 ± 56.7 V/s
APD90 (ms), Dog atrium ([3]; n = 4, CONTROL 123.9 ± 9.6): 140.8 ± 12.4 ms
Kidney AMIO level [4]: 112.173 μg/tissue g
Left Ventricle AMIO level [4]: 81.928 μg/tissue g
Liver AMIO level [4]: 177.317 μg/tissue g
Lung AMIO level [4]: 178.360 μg/tissue g
Right Atrium AMIO level [4]: 75.854 μg/tissue g and 152.023 μg/tissue g
